Assay: Radical scavenging activity (DPPH method)
Conditions: positive control
Protocol: Residual phenolic in growth media ([…]) were recovered as follows: samples of the growth media were taken at different time points along L. johnsonii N6.2 growth kinetics. The supernatant was recovered by centrifugation (4000 g for 30 min at 4° C.) and saved as aliquots at -20° C. until processing. Soluble phenolic compounds were recovered by solid-phase extraction using […] column (ThermoScientific, WI, USA) as described by Correa-Betanz et al. (2015). The total scavenging activity of the culture media was assessed by using the DPPH method described by Dong et al. (2017). The samples ([…] or its polyphenol enriched fractions) were diluted (1⁄2 and 1/10) in methanol. […] The quenching ability of L-ascorbic acid was used as a positive control. The absorbance was measured at 515 nm using a Sinergy HT microplate reader (Biotek, Winooski, Vt., USA). The scavenging activity (SA) was estimated by the following formula: % SA=[(Abscontrol-blank-Abssample-blank)/Abscontrol-blank]×100. Total radical scavenging activity (% SA) is expressed in percent of quenching activity per μg of gallic acid equivalents.

SMILES: O=C1O[C@H]([C@@H](O)CO)C(O)=C1O [L-ascorbic acid]
- DPPH scavenging activity (% SA): 20.2±0.85 % SA
